Measured values from patent US20170181999A1, “USE OF COMPOUNDS PRODUCED FROM ARRABIDAEA BRACHYPODA EXTRACTS AS ANTI-ULCEROGENIC AGENTS” (UNIVERSIDADE ESTADUAL PAULISTA "JULIO DE MESQUITA FILHO" - …, priority 2013, published 2017).
Marks after values point to notes of the source that are not given here.

What was measured:
[1] = test system: glutathione reductase (GR); assay: Glutathione reductase (GR) activity on the gastric mucous, ulcer induced by ethanol; format: in vivo; conditions: oral administration, gastric mucous of rats
Protocol: For measuring the GR activity, the enzymatic reaction was prepared with 100 μL of the sample (after centrifugation and dilution of the supernatant in phosphate buffer pH=7.4 in a 1:10 ratio) and 150 μL of the mixture formed by EDTA (0.20 mM), oxidized glutathione (1 mM) and NADPH (0.1 mM). The absorbance was read at 365 nm, between 0 and 10 minutes, according to the technique developed by Carlberg & Mannervik, 1985.
Rats Unib-WH were submitted to fasting for 24 hours with water ad libitum. On the day of the trial, they were divided into […] groups: saline as negative control, lansoprazole as positive control and four groups with the A. brachypoda roots extracts at different concentrations (dosages of 10, 30, 100 and 300 mg·Kg-1) dissolved in saline at 10 mL·Kg-1 concentrations.
The animals received the predicted treatment for each group and one hour later, 1 mL of absolute ethanol was orally administered.
After one hour of ulcer induction, the rats were sacrificed by cervical dislocation and their stomachs were withdrawn for quantification of injuries.
The injury areas were calculated, the stomachs were homogenized, the cytosolic extracts were prepared and the membranes for conducting the biochemical assays.

[2] = test system: glutathione peroxidase (GPx); assay: Glutathione peroxidase (GPx) activity on the gastric mucous, ulcer induced by ethanol; format: in vivo; conditions: oral administration, gastric mucous of rats
Protocol: Rats Unib-WH were submitted to fasting for 24 hours with water ad libitum. On the day of the trial, they were divided into 7 groups: saline as negative control, lansoprazole as positive control and four groups with the A. brachypoda roots extracts at different concentrations (dosages of 10, 30, 100 and 300 mg·Kg-1) dissolved in saline at 10 mL·Kg-1 concentrations.

GSH = assay: Glutathione (GSH) levels on the gastric mucous, ulcer induced by ethanol; format: in vivo; conditions: oral administration, gastric mucous of rats
Protocol: To proceed with the measurement of the total glutathione content, the method disclosed by Anderson in 1985 was used, which bases on the total oxidation of the reduced glutathione (GSH) present in a sample to its oxidized form (GSSG), through the incubation of the sample with dithiobis nitrobenzoic acid (DTNB). The reduced DTNB acquires a yellow coloration, which can be spectrophotometrically determined. The GSSG generated is reduced by the action of the enzyme glutathione reductase in the presence of NADPH. The GSH formed oxidizes again, generating a continuous cycle, in which the reduction speed of the DTNB (and its resulting increase in the absorbance at 412 nm) is proportional to the total amount of glutathione (GSH+GSSG). To proceed with the measurement of the total glutathione content, the cytosolic extracts obtained from the stomachs of the animals of the ulcer induced by ethanol trials were used. […] The plate was placed on the spectrophotometer reader, where it was maintained for 5 minutes in a temperature of 30° C. After this period, 15 μL of glutathione reductase was added and the increase on the absorbance was registered at 412 nm. […]

myeloperoxidase (MPO) [3] = assay: MPO activity of the gastric mucous, ulcer induced by acetic acid; format: in vivo, rats; conditions: oral, extract 300 mg/kg, lansoprazole 30 mg/kg
Protocol: The myeloperoxidase activity was determined through the method disclosed by Krawisz et al. in 1984. The samples were homogenized in hexadecyl trimethyl ammonium bromide (HTAB) buffer at 0.5% (w/v) in saline phosphate buffer (50 mM, pH 6.0) with final dilution of 1:20 (w/v) until the obtainment of an uniform aspect.
The homogenate was submitted to the ultrasonic bath for 10 seconds, followed by a triple process for freezing and defrosting, which facilitates the rupture of the cell structures and, as a consequence, the release of the enzyme.
The sample was centrifuged at 7000 G, during 10 minutes and the MPO activity was determined following the kinetics of the reaction faced to hydrogen peroxide.
In an ELISA plate, 50 μL of the supernatant and 150 μL of the color reactive and hydrogen peroxide (0.066%) were placed in phosphate buffer (50 mM, pH 6.0).
(§4) The absorbance was determined at 450 nm and the enzyme activity was calculated by the interpolation of the standard curve, performed with MPO originated from human neutrophils.
(§5) One unity of MPO is defined as the necessary amount to degrade 1 mmol/minute of hydrogen peroxide at 25° C. The results were expressed as U/g of protein.

myeloperoxidase (MPO) [4] = assay: MPO activity, ulcer induced by ethanol; format: in vivo; conditions: rats
Protocol: The myeloperoxidase activity was determined through the method disclosed by Krawisz et al. in 1984. The samples were homogenized in hexadecyl trimethyl ammonium bromide (HTAB) buffer at 0.5% (w/v) in saline phosphate buffer (50 mM, pH 6.0) with final dilution of 1:20 (w/v) until the obtainment of an uniform aspect. […]
The sample was centrifuged at 7000 G, during 10 minutes and the MPO activity was determined following the kinetics of the reaction faced to hydrogen peroxide. […]
as §4, §5

gastric acid secretion = assay: Pylorus ligature and evaluation of the gastric juice parameters; format: in vivo, rats; conditions: intra-duodenal administration; pylorus ligature, 4 hours
Protocol: The rats were in fasting for 48 hours with water ad libitum. On the day of the trial, the animals were divided into four groups: saline, lansoprazole, cimetidine and treated with A. brachypoda extract.
The rats were anesthetized and underwent a longitudinal incision just below the xiphoid apophysis for the pylorus ligature.
The drug administration was carried out immediately after the ligature, intraduodenally. The incisions were sutured, and after four hours of surgery, the rats were sacrificed. The stomachs were carefully withdrawn and acid secretion was collected. After centrifugation, the volume and pH of the secretion of each animal was measured.

[5] = test system: ulcer induced by acetic acid; assay: Healing of the ulcer induced by acetic acid, injury area; format: in vivo, rats
Protocol: The rats were anaesthetized with xilazine chloridrate and ketamine for performing a longitudinal incision right under the xiphoid apophysis.
The previous wall of the stomach was exposed and an area of the serous tissue was delimited with a plastic ring upon which was added 50 μL of acetic acid absolute with the aid of an automatic micropipette, the contact between the acid and the serous tissue being maintained during 60 seconds.
Following, the area was cleaned with saline solution and the animals had their abdominal cavities closed, being maintained in rest until complete recovery of the anesthesia and, then, they were placed at the vivarium.
(§1) After 48 hours of the surgical procedure, the oral administration of the treatments was initiated (once daily for 7 and 14 days) with EAB (300 mg/kg), lansoprazole (30 mg/kg—positive control) and vehicle (saline solution 0.9%—negative control).
(§2) The animals were weighted and observed from the induction of the injury to the end of treatments. At the end of this period, the animals were sacrificed; their stomachs were removed and opened toward the great curvature to the measurement of the ulcerative injury area.

[6] = Sub-chronic toxicity evaluation (organ and body weight), acetic acid ulcer model; format: in vivo, rats; conditions: oral
Protocol: as §1, §2
(§3) Tissue sections were also collected for preparing histological blades. The animals also had heart, lungs, liver, kidneys and testicles collected and weighted in order to verify possible signs of toxicity.

[7] = test system: ulcer induced by acetic acid; assay: Histological analysis of stomachs, ulcer induced by acetic acid; format: in vivo, rats; conditions: treated for 14 days, compared to the saline group
Protocol: as §3
The histological cuts and blades were prepared by fixing the material in Alfac (formalin, alcohol 80% and acetic acid) for 24 hours. The pieces were, then, dehydrated and included in an appropriate medium solid.
Subsequently, the middle blocks were cut ([…] thick) on a microtome, serially. The samples were submitted to hematoxylin-eosin (HE) coloration for general observation of the structure and cellularity in light microscopy.

Row | SMILES | GR (nmol/min/mg of protein) [1] | GPx (nmol/min/mg of protein) [2] | GSH (nmol/mg of protein) (GSH) | MPO (U/mg of protein) (myeloperoxidase (MPO) [3]; 7 consecutive days) | MPO (U/mg of protein) (myeloperoxidase (MPO) [3]; 14 consecutive days) | MPO (U/mg of protein) (myeloperoxidase (MPO) [4]) | pH of the gastric acid secretion (gastric acid secretion) | Ulcerogenic injury area (FIG. 6) ([5]; 7 consecutive days, oral, extract 300 mg/kg, lansoprazole 30 mg/kg) | Evolution of the healing process, recovery of the gastric mucous (FIG. 8) ([5]; during 14 days of oral treatment) | Evolution of the corporal weight (FIG. 5) ([6]; sub-chronic treatment, 14 days) | Relation between the weight of the organs and the animals: lungs (FIG. 3) ([6]; treated for 7 days) | Photomicrographs of stomachs (FIG. 11) [7] | Volume of gastric acid secretion (mL) (gastric acid secretion)
1 | Cc1c(OCC(F)(F)F)ccnc1C[S+]([O-])c1nc2ccccc2[nH]1 (centres unmarked) [Lansoprazole, lansoprazole] | 10.53 ± 0.42 nmol/min/mg of protein | 33.54 ± 2.12 nmol/min/mg of protein | 13.45 ± 2.25 nmol/mg of protein | 110.50 ± 33.43 U/mg of protein | 98.05 ± 15.99 U/mg of protein | 0.6 0.04* U/mg of protein | 5.41 0.04*** | reduction of the injury area | acceleration | no significative statistical difference | reduction of this relation in the lungs | speeded up the healing of the gastric mucous | –
2 | CN/C(=N/CCSCc1nc[nH]c1C)NC#N [Cimetidine, cimetidine] | – | – | – | – | – | – | 5.39 0.11*** | – | – | – | – | – | 0.31 0.03** mL
